In US11337426B2, “Biological control agents against fire blight” (priority 2018, dated 2022):

Tests used:
E. amylovora S435 [1] = test: Agar disc diffusion assay of cell-free supernatants and fractions; assay type: cell-based, Erwinia amylovora; conditions: active fraction from bioassay-guided fractionation
Protocol: To obtain cell-free supernatants, cultures of both strains were centrifuged at 25 000 rpm for 1 hour. The pellets were discarded and the supernatants were filtered using Stericup™ vacuum filtration system (0.2 μm). Fresh cell-free supernatants were used for the present research, but they could also be stored at +4° C. for one week, or at −20° C. for 6 months, while keeping their activity.
1 L of each bacterial culture was combined, and biomass was removed by centrifugation at 17 700×g for 20 min. The cell-free medium supernatant was applied to 40 g of pre-equilibrated Amberlite™ XAD-16 resin packed in a column. The XAD-16 column was subsequently washed with 1 L of H2O, and then eluted with 1 L of 100% methanol. The methanolic elution was evaporated to dryness by rotary evaporation, and the brown residue was redissolved in 5 ml of purified water (Milli-Q system; Millipore, Bedford, Mass.). The concentrated solution was then applied onto a 12 gram Biotage® SNAP Ultra C18 column to be fractionate using reverse-phase flash chromatography on a Biotage (Stockholm, Sweden) Isorela One instrument. This chromatography was performed using a linear gradient acetonitrile from 5% to 100% over 50 min at 15 ml min^−1. […] The bioactivity of these fractions was further determined by performing agar disc diffusion assay. […]

[2] = test system: Erwinia amylovora strain S01; test: Field trial to control fire blight on Rome apple trees, Geneva NY; assay type: in vivo
Protocol: A field trial was conducted to determine the performance of the formulated product based on the vegetative cells of Pseudomonas poae FL10F and its extracellular metabolites produced in the supernatants and was compared to antibiotic (FireWall 17 WP Streptomycin), copper fungicide (Cueva, Certis, USA) and the biological product Blossom Protect based on two strains of Aureobasidium pullulans. […] Both antibiotic and copper that were used in this trial were EPA registered products. Pseudomonas poae FL10F was cultivated for 2 days at 30° C. and 200 rpm and reached an OD600 nm=2.50, which was empirically determined to represent 2.50×10^9 CFU/mL by plating serial dilutions of the suspension and counting colonies. A 4L of product based on Pseudomonas poae FL10F and its metabolites was produced as described above and was sprayed more than 2 months later on apple Rome trees. Three samples of this formulated product were retained in sterile 50 mL polypropylene centrifuge tubes at room temperature for long-term activity and bacterial count studies.
The 4L product was used during in a field trial conducted in Phelps, (Geneva) NY to evaluate the product against fire blight. Apple Rome were used for this study that had 5 to 12 blossom clusters per tree. These were 1-year-old trees from Waffler Nursery, Wolcott, N.Y.
The experimental treatments were applied using a CO2 Backpack sprayer that was calibrated to deliver 100 gallons per acre (Trees were sprayed to first drip with a “dilute” solution of products.) The sprayer was calibrated at 42 PSI and used 2 Hollow Cone (TXVK18) Nozzles.
An evaluation of treatments was conducted using the method where scissors were dipped into a solution of a streptomycin sensitive Erwinia amylovora strain S01, and the two smallest leaves on each terminal or shoot were cut in half. This severe test is used to simulate infection that can occur following hailstorms. The scissors were dipped into the Erwinia amylovora S01 solution prior to each cut. The apical terminal shoot and the terminal leaves on any side shoots were cut. For the size of these trees, the number of terminals that were cut varied from 9 to 18. To evaluate the treatments for this method, each treatment was applied as before to all leaves and shoots of seven individual trees. The inoculations occurred near dusk, and 1.15 inches of rain occurred during the overnight period. All treatments were applied 30 minutes before the infection and then re-applied 24 hours after the initial inoculation. The second application of treatments was applied to the same trees. The product based on Fluorescent Pseudomonas poae FL10F and its metabolites was first diluted at a concentration of 20% (w/w) with water then it was mixed properly and sprayed.
At 3 weeks following the scissor inoculation, each terminal shoot was rated for the length in inches with typical symptoms of fire blight (rated as SEVERITY). Then the percentage of all shoots that had any symptoms of fire blight was calculated as INCIDENCE).
The objective of this trial was to compare the activity of P. poae FL with antibiotic (Streptomycin), copper fungicide (Cueva, Certis, USA) and the biological product Blossom Protect based on two strains of Aureobasidium pullulans (Porter et al., 1960). Apple trees were infected with […] CFU/mL solution of Erwinia amylovora. The concentration of various treatments applied are represented in Table 13. The medium used in Treatment 7 is the same one used to cultivate the P. poae FL composed of Nutrient Broth NB (Difco) supplemented with 0.5% (w/w) glycerol and a concentration of 4% NaCl (w/w). Neither the medium nor the treatments used were phytotoxic to apple leaves and no phytotoxicity was noted on the apple trees in this study.

E. amylovora S435 [3] = test: Management of fire blight on shoots of potted McIntosh apple trees; assay type: in vivo, Erwinia amylovora; conditions: treated 2 h after inoculation, formulations diluted to 20%, streptomycin 100 ppm, 10 d
Protocol: A trial was conducted at the IRDA research station in Saint-Bruno-de-Montarville, Québec to evaluate the efficacies of the best isolates previously screened. To simulate fire blight, Malus x domestica ‘McIntosh’ cultivar trees were inoculated then treated 2 h later with 20% (w/w) isolate dilutions. Inoculum was obtained by suspending a 5-d culture of the virulent strain E. amylovora […] in potassium phosphate buffer (pH=6.5) in King B agar which favors the growth of this phytopathogen. The bacterial density was adjusted to ˜1×10^9 CFU/mL. Actively growing potted trees (cv. McIntosh grafted onto M26) were inoculated by transversely bisecting the two youngest leaves with scissors dipped in the inoculum. One or two shoots were inoculated per tree. Two hours after inoculation, candidate biological control agent suspensions were sprayed to runoff onto five trees per treatment using a low-pressure sprayer. The experimental design was completely randomized.
Inoculated controls were sprayed either with water or with the medium used to formulate the candidate biocontrol products. Uninoculated controls were sprayed only with water. […] Severity scores were analyzed with a cumulative link mixed model (clmm) in the “ordinal” package of R. Treatment and observation date were used as fixed effects. […]

[4] = 3 weeks, Strepmycin 2.4 oz wt/a

Compound	inhibition halos of the extracellular metabolite fraction on a lawn of E. amylovora S435 (E. amylovora S435 [1])	Fire blight Severity: Average length of shoot with symptoms of Fire blight ([2]; 3 weeks after scissor inoculation, Strepmycin 8 oz wt/a, Cueva 64 fl oz/a, P. poae FL10F 20 % v/v, Blossom Protect 20 oz wt/a) [INCHES]	Fire blight Incidence: Average percentage of shoots with symptons of Fire blight following inoculation [2, 4] [%]	Fire blight Severity: Average length of shoot with symptoms of Fire blight [2, 4] [INCHES]	Fire blight Incidence: Average percentage of shoots with symptons of Fire blight following inoculation ([2]; 3 weeks, Strepmycin 8 oz wt/a, Cueva 64 fl oz/a, P. poae FL10F 20 % v/v, Blossom Protect 20 oz wt/a) [%]	Phytotoxicity: Percentage of leaves with atypical symptoms ([2]; Strepmycin 2.4 oz wt/a) [%]	Phytotoxicity: Percentage of leaves with atypical symptoms ([2]; Strepmycin 8 oz wt/a, Cueva 64 fl oz/a, P. poae FL10F 20 % v/v, Blossom Protect 20 oz wt/a) [%]	Median score (disease severity 0-4) (E. amylovora S435 [3])
white line-inducing principle [WLIP]	comparable in diameter to that of the live strain itself or crude extracellular metabolites therefrom	–	–	–	–	–	–	–
[H]/N=C(/N)N[C@H]1[C@H](O)[C@@H](O)[C@H](O[C@@H]2O[C@@H](C)[C@](O)(C=O)[C@H]2O[C@@H]2O[C@@H](CO)[C@H](O)[C@@H](O)[C@@H]2NC)[C@@H](N/C(N)=N\[H])[C@@H]1O [Streptomycin]	–	3.89	81.73	5.53	52.39	0.00	0.00	0
oxydifficidin	comparable in diameter to that of the live strain itself or crude extracellular metabolites therefrom	–	–	–	–	–	–	–
